Each structure is given as a SMILES string.

EC50 data for 20 compounds are collected here from US8987250B2 (Gilead Sciences, Inc., priority 2012, dated 2015).

For the first assay, the system named is HIV-IIIb. As to the kind of experiment: Test A: Antiviral Assay in MT4 Cells. Type of assay: cell-based. The conditions noted are these: Human immunodeficiency virus 1, IIIB, MT4, 120 h, Table 2; MT-4 cells infected with HIV-IIIb, 5 days of incubation, CellTiter-Glo; read-out: EC50. In a few lines:
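MT-4 cells pre-infected with HIV-IIIb (0.004 m.o.i.) at 37 °C, then exposed to 3-fold serial compound dilutions (10 concentrations, quadruplicate) in RPMI 1640/10% FBS. After 5 days at 37 °C, viability read by CellTiter-Glo luminescence.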
For orientation: ATP-based viability assays read luminescence as a measure of living cells.
Usually EC50 stands for the concentration at which the effect is half-maximal. For `CNc1ccc2cc(-c3cc(-c4nc5cc(C)c([C@H](OC(C)(C)C)C(=O)O)c(-c6ccc(Cl)cc6)c5s4)ccn3)ccc2n1` [Compound 192, (S)-2-tert-butoxy-2-(7-(4-chlorophenyl)-5-methyl-2-(2-(2-(methylamino)quinolin-6-yl)pyridin-4-yl)benzo[d]thiazol-6-yl)acetic acid], the concentration giving a half-maximal response (EC50) is 12 nM.

For `Cc1cc2nc(-c3ccnc(-c4ccc5nc(N)ccc5c4)c3)sc2c(-c2ccc(Cl)cc2)c1[C@H](OC(C)(C)C)C(=O)O` [Compound 193, (S)-2-(2-(2-(2-aminoquinolin-6-yl)pyridin-4-yl)-7-(4-chlorophenyl)-5-methylbenzo[d]thiazol-6-yl)-2-tert-butoxyacetic acid], the EC50 was determined as 9 nM.

With `Cc1cc2nc(-c3ccc4c(=O)n(C)n(C)c4c3)sc2c(-c2ccc(Cl)cc2)c1[C@H](OC(C)(C)C)C(=O)O` [Compound 194, (S)-2-tert-butoxy-2-(7-(4-chlorophenyl)-2-(1,2-dimethyl-3-oxo-2,3-dihydro-1H-indazol-6-yl)-5-methylbenzo[d]thiazol-6-yl)acetic acid], the EC50 was 21 nM.

For `Cc1cc2nc(-n3ccc4ccncc4c3=O)sc2c(-c2ccc(Cl)cc2)c1[C@H](OC(C)(C)C)C(=O)O` [Compound 195, (S)-2-tert-butoxy-2-(7-(4-chlorophenyl)-5-methyl-2-(1-oxo-2,7-naphthyridin-2(1H)-yl)benzo[d]thiazol-6-yl)acetic acid], the EC50 is 11 nM.

Regarding `Cc1cc2nc(-c3ccnc(-c4cnc5c(c4)cc(C)n5C)c3)sc2c(-c2ccc(Cl)cc2)c1[C@H](OC(C)(C)C)C(=O)O` [Compound 196, (S)-2-tert-butoxy-2-(7-(4-chlorophenyl)-2-(2-(1,2-dimethyl-1H-pyrrolo[2,3-b]pyridin-5-yl)pyridine-4-yl)-5-methylbenzo[d]thiazol-6-yl)acetic acid], the concentration giving a half-maximal response (EC50) is 33 nM.

As for `Cc1cc2nc(-c3cnc4c(c3)cc(C)n4C)sc2c(-c2ccc(Cl)cc2)c1[C@H](OC(C)(C)C)C(=O)O` [Compound 197, (S)-2-tert-butoxy-2-(7-(4-chlorophenyl)-2-(1,2-dimethyl-1H-pyrrolo[2,3-b]pyridin-5-yl)-5-methylbenzo[d]thiazol-6-yl)acetic acid], the EC50 came to 12 nM.

In the case of `Cc1cc2nc(-c3cnc4c(c3)c(C)cn4C)sc2c(-c2ccc(Cl)cc2)c1[C@H](OC(C)(C)C)C(=O)O` [Compound 198, (S)-2-tert-butoxy-2-(7-(4-chlorophenyl)-2-(1,3-dimethyl-1H-pyrrolo[2,3-b]pyridin-5-yl)-5-methylbenzo[d]thiazol-6-yl)acetic acid], the EC50 stood at 39 nM.

As for `Cc1cc2nc(-c3ccc4nc(C)n([C@H]5CCN(C)C5)c4c3)sc2c(-c2ccc(Cl)cc2)c1[C@H](OC(C)(C)C)C(=O)O` [Compound 200, (S)-2-tert-butoxy-2-(7-(4-chlorophenyl)-5-methyl-2-(2-methyl-1-((S)-1-methylpyrrolidin-3-yl)-1H-benzo[d]imidazol-6-yl)benzo[d]thiazol-6-yl)acetic acid], the EC50 is 14 nM.

For the compound `Cc1cc2nc(-c3cnnc(-c4ccc5c(cnn5C)c4)c3)sc2c(-c2ccc(Cl)cc2)c1[C@H](OC(C)(C)C)C(=O)O` [Compound 201, (S)-2-tert-butoxy-2-(7-(4-chlorophenyl)-5-methyl-2-(6-(1-methyl-1H-indazol-5-yl)pyridazin-4-yl)benzo[d]thiazol-6-yl)acetic acid], the 50% effective concentration (EC50) came to 7 nM.

`COc1ccc(-c2nccc(-c3nc4cc(C)c([C@H](OC(C)(C)C)C(=O)O)c(-c5ccc(Cl)cc5)c4s3)n2)cc1OC` [Compound 203, (S)-2-tert-butoxy-2-(7-(4-chlorophenyl)-2-(2-(3,4-dimethoxyphenyl)pyrimidin-4-yl)-5-methylbenzo[d]thiazol-6-yl)acetic acid]: the 50% effective concentration (EC50) came out at 12 nM.

As to `Cc1cc2nc(-c3ccc(-c4cnn(C)c4C)cc3)sc2c(-c2ccc(Cl)cc2)c1[C@H](OC(C)(C)C)C(=O)O` [Compound 204, (S)-2-tert-butoxy-2-(7-(4-chlorophenyl)-2-(4-(1,5-dimethyl-1H-pyrazol-4-yl)phenyl)-5-methylbenzo[d]thiazol-6-yl)acetic acid], the EC50 came to 155 nM.

`Cc1cc2nc(-c3ccnc(C4CCN(C)CC4)n3)sc2c(-c2ccc(Cl)cc2)c1[C@H](OC(C)(C)C)C(=O)O` [Compound 205, (S)-2-tert-butoxy-2-(7-(4-chlorophenyl)-5-methyl-2-(2-(1-methylpiperidin-4-yl)pyrimidin-4-yl)benzo[d]thiazol-6-yl)acetic acid]: the EC50 worked out at 18 nM.

`Cc1cc2nc(N3CCc4ncccc4C3)sc2c(-c2ccc(Cl)cc2)c1[C@H](OC(C)(C)C)C(=O)O` [Compound 207, (S)-2-tert-butoxy-2-(7-(4-chlorophenyl)-2-(7,8-dihydro-1,6-naphthyridin-6(5H)-yl)-5-methylbenzo[d]thiazol-6-yl)acetic acid]: the EC50 turned out to be 19 nM.

Consider `Cc1cc2nc(N3CCc4ccccc4C3)sc2c(-c2ccc(Cl)cc2)c1[C@H](OC(C)(C)C)C(=O)O` [Compound 208, (S)-2-tert-butoxy-2-(7-(4-chlorophenyl)-2-(3,4-dihydroisoquinolin-2(1H)-yl)-5-methylbenzo[d]thiazol-6-yl)acetic acid], for which the EC50 was 62 nM.

Regarding `Cc1cc2nc(-c3ccc4c(C)nn(C)c4c3)sc2c(-c2ccc(Cl)cc2)c1[C@H](OC(C)(C)C)C(=O)O` [Compound 209, (S)-2-tert-butoxy-2-(7-(4-chlorophenyl)-2-(1,3-dimethyl-1H-indazol-6-yl)-5-methylbenzo[d]thiazol-6-yl)acetic acid], the EC50 came to 16 nM.

As to `Cc1cc2nc(-c3ccc4c(c3)nnn4C)sc2c(-c2ccc(Cl)cc2)c1[C@H](OC(C)(C)C)C(=O)O` [Compound 210, (S)-2-tert-butoxy-2-(7-(4-chlorophenyl)-5-methyl-2-(1-methyl-1H-benzo[d][1,2,3]triazol-5-yl)benzo[d]thiazol-6-yl)acetic acid], the concentration giving a half-maximal response (EC50) amounted to 6 nM.

Turning to `Cc1cc2nc(-c3ccc4c(c3)c(-c3ccncc3)nn4C)sc2c(-c2ccc(Cl)cc2)c1[C@H](OC(C)(C)C)C(=O)O` [Compound 213, (S)-2-tert-butoxy-2-(7-(4-chlorophenyl)-5-methyl-2-(1-methyl-3-(pyridin-4-yl)-1H-indazol-5-yl)benzo[d]thiazol-6-yl)acetic acid], the EC50 is 4 nM.

Take `Cc1cc2nc(-c3ccc4c(c3)c(-c3ccccn3)nn4C)sc2c(-c2ccc(Cl)cc2)c1[C@H](OC(C)(C)C)C(=O)O` [Compound 214, (S)-2-tert-butoxy-2-(7-(4-chlorophenyl)-5-methyl-2-(1-methyl-3-(pyridin-2-yl)-1H-indazol-5-yl)benzo[d]thiazol-6-yl)acetic acid]: the 50% effective concentration (EC50) was 17 nM.

Turning to `Cc1cc2nc(-c3ccnc(-c4cc(C)c5c(cnn5C)c4)c3)sc2c(-c2ccc(Cl)cc2)c1[C@H](OC(C)(C)C)C(=O)O` [Compound 215, (S)-2-tert-butoxy-2-(7-(4-chlorophenyl)-2-(2-(1,7-dimethyl-1H-indazol-5-yl)pyridin-4-yl)-5-methylbenzo[d]thiazol-6-yl)acetic acid], the EC50 was 27 nM.

Staying with this assay, now noted: Table 2; MT-4 cells infected with HIV-IIIb, 5 days of incubation, CellTiter-Glo; read-out: EC50.
As for `Cc1cc2nc(-c3ccnc(-c4cnc5c(c4)c(C)cn5C)c3)sc2c(-c2ccc(Cl)cc2)c1[C@H](OC(C)(C)C)C(=O)O` [Compound 199, (S)-2-tert-butoxy-2-(7-(4-chlorophenyl)-2-(2-(1,3-dimethyl-1H-pyrrolo[2,3-b]pyridin-5-yl)pyridine-4-yl)-5-methylbenzo[d]thiazol-6-yl)acetic acid], the EC50 came to 95 nM.
